ChEMBL document CHEMBL5665440, “ASAP - In vitro liver microsomal stability” (2024)

Legend:
[1] = (§1) Human liver microsomal stability of compound in microsomal protein, PBS buffer pH 7.4, NADPH, glucose-6-phosphate and glucose-6-phosphate dehydrogenase media. Aliquotes were taken at 5 time points and after stopping the reaction, supernatants were analyzed using HPLC coupled with a tandem mass spectrometer. The elimination constant, half-life, and intrinsic clearance are determined as results using linear regression analysis.; type: ADME, microsomes, Microsome; settings: for half-life / microsomal CLint: liver microsomes
[2] = as §1, with “Mouse” for “Human”; type: ADME, microsomes, Microsome; settings: for half-life / microsomal CLint: liver microsomes; for Remaining / Remaining (without cofactor): microsomes
For Remaining (without cofactor) in this document: time not given here.
For Remaining in this document: time not given here.

| half-life [1] [h] | microsomal CLint [1] [µL/min/mg] | Remaining ([1]; microsomes) [%] | Remaining (without cofactor) ([1]; microsomes) [%] | half-life [2] [h] | microsomal CLint [2] [µL/min/mg] | Remaining [2] [%] | Remaining (without cofactor) [2] [%] | T1/2 ([1]; microsomes) | SMILES |
| --- | --- | --- | --- | --- | --- | --- | --- | --- | --- |
| > 2.89 | < 10 | 98.893 | 98.069 | – | – | – | – | – | Clc1ccc2[nH]cc(Cc3ccc(-c4nn[nH]n4)cc3)c2c1 |
| > 2.89 | < 10 | 91.546 | 107.23 | – | – | – | – | – | CC(C)NC(=O)[C@H](Nc1ccc2c(c1)CNC2)c1cc(Cl)cc2[nH]ncc12 |
| > 2.89 | < 10 | 85.255 | 101.935 | – | – | – | – | – | O=C(Nc1ccc2c(c1)CNC2)c1cc(Cl)cc2c1CCC2 |
| > 2.89 | < 10 | 83.745 | 108.267 | – | – | – | – | – | Cn1ncc2c(C(=O)Nc3ccc4c(c3)CNC4)cc(Br)cc21 |
| > 2.89 | < 10 | 90.289 | 100.18 | – | – | – | – | – | CNC(=O)[C@H](Nc1ccc(-c2nnn[nH]2)cc1)c1cc(Cl)cc(C2CC2)c1 |
| – | – | – | – | 0.0717 | 388 | 0.854 | 95.554 | – | Cc1c(C(=O)Nc2cc(-c3cccnc3)ccn2)cc(C2CC2)n1C |
| 1.8 | 15 | 82 | 110 | 0.695 | 33 | 52 | 101 | – | COc1cc(Cc2c(-c3ccc(F)cc3)noc2C)nc(N2CCNCC2)n1 |
| > 2.89 | < 10 | 97.296 | 93.037 | – | – | – | – | – | C=CC[C@H]1NCc2cc(NC(=O)c3cc(F)cc4[nH]ncc34)ccc21 |
| – | – | – | – | > 2.89 | < 10 | 102.985 | 100.305 | – | O=C1Cc2cc(C(=O)Nc3ccc4c(c3)CNC4)ccc2N1 |
| – | – | 0 | 109.308 | – | – | – | – | Half-life could not be determined | NCc1cc(Cl)cc(C(=O)Nc2ccc3c(c2)CNC3)c1 |
| > 2.89 | < 10 | 95.463 | 101.856 | – | – | – | – | – | CNC(=O)[C@H](Nc1cc(CN)cc(-c2nn[nH]n2)c1)c1cc(Cl)cc(C2CC2)c1 |

More lines, now with the values behind:

| SMILES | half-life [1] [h] | microsomal CLint [1] [µL/min/mg] | Remaining ([1]; microsomes) [%] | Remaining (without cofactor) ([1]; microsomes) [%] | half-life [2] [h] | microsomal CLint [2] [µL/min/mg] | Remaining [2] [%] | Remaining (without cofactor) [2] [%] | T1/2 ([1]; microsomes) |
| --- | --- | --- | --- | --- | --- | --- | --- | --- | --- |
| C=CC[C@H](Nc1ccc(-c2nn[nH]n2)cc1)c1cc(Cl)cc(NC(=O)OCc2ccccc2)c1 | 2.77 | 10.1 | 84.591 | 100.465 | – | – | – | – | – |
| O=C(Nc1cc(Cl)cc([C@H]2CN(Cc3ccccc3)C[C@@H]2c2cccc(-c3nn[nH]n3)c2)c1)OCc1ccccc1 | 0.601 | 46.3 | 46.707 | 96.205 | – | – | – | – | – |
| Cc1c(C(=O)Nc2cc([C@H]3CCOC3)ccn2)cc(C2CC2)n1C | 0.482 | 57.7 | 39.342 | 94.838 | – | – | – | – | – |
| O=C(Nc1cc(Cl)cc([C@H](Nc2cccc(-c3nn[nH]n3)c2)C(=O)NCc2ccccc2)c1)OCc1ccccc1 | > 2.89 | < 10 | 93.548 | 99.519 | – | – | – | – | – |
| O=C(/C=C/c1ccccc1)C(=O)N1CCN(CCc2ccccc2)CC1 | 0.167 | 167 | 6 | 98 | 0.153 | 181 | 5 | 96 | – |
| CCCC[C@@H](NC(=O)OC(C)(C)C)C(=O)N[C@@H](C(=O)NCc1ccc(CN)cc1)c1ccc(OCc2ccccc2)cc1 | 0.497 | 56 | 40.588 | 99.499 | 3.11 | 7.44 | 87.681 | 94.521 | – |
| N#C[C@H](Nc1ccc2c(c1)CNC2)c1cc(Cl)cc2[nH]ncc12 | 2.71 | 10.3 | 84.178 | 84.336 | – | – | – | – | – |
| NCc1cccc(NC(=O)[C@@H](NC(=O)OCc2ccccc2)c2ccc(OCc3ccccc3)cc2)c1 | 2.48 | 11 | 87 | 100 | 30 | 1 | 103 | 106 | – |
| NCc1cccc(NC(=O)C[C@H](NC(=O)OCc2ccccc2)c2ccc(OCc3ccccc3)c(Br)c2)c1 | 2.25 | 12.4 | 79.862 | 98.099 | > 2.89 | < 10 | 98.216 | 98.077 | – |
| O=C(Nc1cc(Cl)cc(-c2ccc3[nH]c(C(=O)O)cc3c2)c1)OCc1ccccc1 | > 2.89 | < 10 | 92.268 | 98.779 | – | – | – | – | – |
| O=C(O)Cn1ncc2cc(-c3cc(Cl)cc(NC(=O)OCc4ccccc4)c3)ccc21 | > 2.89 | < 10 | 101.103 | 100.106 | – | – | – | – | – |
| NCc1cccc(CNC(=O)[C@@H](NC(=O)OCc2ccccc2)c2ccc(OCc3ccccc3)cc2)c1 | 7.17 | 3.88 | 94.901 | 89.996 | 8.46 | 2.73 | 103.125 | 96.808 | – |
| CNC(=O)c1cc(Cl)ccc1NS(=O)(=O)c1ccc(Oc2ccccc2Cl)cc1 | 0.263 | 106 | 18 | 94 | 0.247 | 94 | 16 | 99 | – |
| CNC(=O)[C@H](Nc1cc(CN)cc(C(=O)O)c1)c1cc(Cl)cc(C2CC2)c1 | > 2.89 | < 10 | 98.4 | 103.999 | – | – | – | – | – |
| OCC#C[C@H](Nc1ccc2c(c1)CNC2)c1cc(Cl)cc2[nH]ncc12 | > 2.89 | < 10 | 89.541 | 103.012 | – | – | – | – | – |
| C=CC[C@H](Nc1cccc(-c2nn[nH]n2)c1)c1cc(Cl)cc(NC(=O)OCc2ccccc2)c1 | 0.425 | 65.5 | 34.146 | 93.066 | – | – | – | – | – |
| CNC(=O)c1cc(Cl)c(F)cc1NS(=O)(=O)c1ccc(Oc2ccccc2Cl)cc1 | 0.39 | 71.3 | 32.8 | 112.27 | 0.506 | 45.6 | 39.045 | 100.041 | – |
| Cc1ccc(NC(=O)c2cc(Cl)cc(NC(=O)OCc3ccccc3)c2)cc1CN | > 2.89 | < 10 | 88.403 | 97.11 | – | – | – | – | – |
| O=C(O)c1cc(Cl)ccc1NS(=O)(=O)c1ccc(Oc2ccccc2Cl)cc1 | 0.18 | 155 | 8.181 | 110.535 | 1.82 | 13 | 79.49 | 100.358 | – |
